This note sets out measurements from patent US20250262229A1, “APPLICATION OF PHD2 INHIBITOR IN PREPARATION OF DRUGS FOR PREVENTION AND TREATMENT OF PLATELET THROMBUS” (Nankai University, priority 2024, published 2025).

For assay [1], the system named is SD rat platelets. Kind of assay: Collagen-VWF-platelet adhesion assay. It is filed as cell-based. The following applies: 1 μM IOX2-treated PHD2 protein, 10 μg/mL type I collagen; SD rat plasma then platelets. The procedure:
(§1) The binding of platelets to collagen occurs mainly through VWF as a junction. PHD2 promotes the hydroxylation of collagen to form a three-dimensional structure to better bind to VWF. To verify the above principle, 10 μg/mL type I collagen is mixed with 1 μM IOX2-treated PHD2 protein and inoculated into a black 96-well plate, incubated at 4° C. overnight. Parallel triplicates, for the first one, SD rat platelets (2×10^7 cells/mL) are added and incubated at 37° C. for 90 minutes, after full washing with PBS, the fixed platelets are stained with Calcein-AM dye. For the second one, the primary antibody of VWF (Beijing Boaosen Biology technology Co., LTD., bs-20428R) is incubated at 4° C. overnight, after the excess primary antibody is washed away by PBS, the fluorescent secondary antibody (Abcam, ab150077) is incubated at 37° C. for 1 hour, and the excess secondary antibody is washed away. For the third one, SD rat plasma is added, incubated at room temperature for 4 hours, and then SD rat platelets (2×10^7 cells/mL) are added, incubated at 37° C. for 90 minutes, after full washing with PBS, the fixed platelets are stained with Calcein-AM dye. The fluorescence values of respective groups are measured by a multifunctional microplate reader at the excitation wavelength of 488 nm and the emission wavelength of 525 nm.

Another assay concerns binding of collagen-VWF. Kind of assay: Collagen-VWF binding assay. The following applies: 1 μM IOX2-treated PHD2 protein, 10 μg/mL type I collagen; VWF antibody detection. The procedure: as §1
Assay [2] deals with SD rat platelets. Kind of assay: Collagen-platelet adhesion assay. The following applies: 1 μM IOX2-treated PHD2 protein, 10 μg/mL type I collagen. Type of assay: cell-based. The procedure: as §1
Assay [3] has as its system SD rat platelets. Kind of assay: Platelet adhesion to collagen on glass slides, fluorescence imaging analysis. Type of assay: cell-based. To be noted: IOX2 0.1 μM, 1 μM, 10 μM incubated with 100 μg/mL PHD2 protein; 10 μg/mL type I collagen. The protocol:
Different doses of PHD2 inhibitor IOX2 (0.1 μM, 1 μM, 10 μM) are taken and incubated with 100 μg/mL PHD2 protein at 4° C. for 8 hours, then 10 μg/mL type I collagen is mixed with the above solution and added dropwise to glass slides, and incubated at 4° C. overnight. SD rat platelets (2×10^7 cells/mL) are then inoculated on the glass slides and incubated at 37° C. for 90 minutes. After being fully washed by PBS, the fixed platelets are stained with Calcein-AM dye, fluorescence imaging analysis is performed using fluorescence microscope (Leica TCS SP8, Germany), and statistical analysis is performed on platelets with collagen adhesion using Image J software. The results are shown as in FIG. 5A.

For assay [4], the system named is soft tissue injury in rats. The assay is described as follows: Blood microcirculation disorder induced by acute soft tissue injury in rats. It is filed as in vivo, SD rats. The following applies: N-acetylcysteine 70 mg/kg/d i.p., ginsenoside CK 25 and 12.5 mg/kg/d i.p., vs model group; for whole blood viscosity: low, medium and high shear rate. The protocol: SD male rats are taken and randomly divided into a blank control group, a model group, a positive control group (N-acetylcysteine, intraperitoneally injected at 70 milligrams per kilogram per day abbreviated as mg/kg/d), and high and low dose ginsenoside CK groups (intraperitoneally injected at 25 mg/kg/d and 12.5 mg/kg/d). The blank control group and the model group are given the same volume of sterile drinking water in the same manner. The molding is investigated three days after pre-administration. The rats are first anesthetized with 1% pentobarbital sodium (40 mg/kg), and the hair of the right buttocks and posterior thighs of the anesthetized rats are removed and fixed on the plate of an acute soft tissue injury modeling device. A 100 g weight is selected to impact the lateral aspect of the mid-right calf with five free-falls from a height of 100 centimeters (cm) causing soft tissue injury. The rats with successful modeling are continued to be administered for 4 days, and 1 hour after the last administration, the rats are anesthetized, blood is collected from the abdominal aorta with a blood viscometer to detect the viscosity of whole blood of the rats with high shear rate [200 s], medium shear rate [30 s], low shear rate [3 s], and low shear rate [1 s]. Coagulation parameters, such as erythrocyte aggregation index, erythrocyte packed-cell volume, platelet number and mean platelet volume, are determined by using a blood cell analyzer.

Assay [5] concerns LPS-induced DIC model in mice. The assay is described as follows: LPS-induced disseminated intravascular coagulation (DIC) model in mice. It is filed as in vivo. The following applies: aspirin 10 mg/kg taken orally, Daprodustat 10 mg/kg intraperitoneal injection. The procedure: The sh-PHD2 mice and sh-ctrl blank mice are randomly divided into a blank group and a model group, with 6 mice in each group. The model group is injected intraperitoneally with 10 milligrams per kilogram (mg/kg) lipopolysaccharide abbreviated as LPS (Beijing Solarbio Science & Technology Co., Ltd., Cat. No. L8880) to induce the mice to establish a disseminated intravascular coagulation (DIC) model, and the blank group is injected intraperitoneally with the corresponding volume of physiological saline. After 2 hours, the mice are anesthetized by intraperitoneal injection of 1% pentobarbital sodium (40 mg/kg), and the tail is cut at a site of 3 millimeters (mm) from the tip of the tail of each mouse, and the tail is placed vertically in 37° C. physiological saline immediately after the first drop of blood is sucked up on filter paper to record the tail bleeding time.
In addition to the blank group, the other groups use the method of the embodiment 1 to prepare the LPS-induced DIC model in mice, and the administration group is given drug intervention 1 hour before modeling.

The target of assay [6] is T1, PHD2 protein (Homo sapiens, UniProt Q9GZT9). The assay is described as follows: Surface plasmon resonance (SPR) interaction analysis with PHD2. It is filed as binding. To be noted: Biacore T200, CM5 chip, 1.56 μM to 200 μM, read-out: dissociation constants KD with PHD2 protein. The procedure: The interaction between these active natural products and recombinant human PHD2 protein is analyzed by surface plasmon resonance (SPR) technique using a Biacore™ T200 surface plasmon resonance analyzer from GE healthcare. The CM5 chip is selected, the purified PHD2 protein is immobilized on the channel of the chip, and the active natural product solution as a mobile phase is flowed through the chip, with the concentration ranging from 1.56 μM to 200 μM. The flow rate of mobile phase is 30 μL/min, and the dissociation is monitored for 150 seconds.
On the technique in general: In SPR one partner is held on a chip, and binding of the other changes the refractive index at the surface.

Assay [7] has as its target T1, PHD2 protein. Kind of assay: PHD2 enzyme activity, 2-oxogalarate-phenylenediamine method. It is filed as biochemical. On the set-up: purchased Abcam ab132273.
Experimental: 1 micromole per liter (μM) PHD2 inhibitor is incubated with 100 micrograms per milliliter (μg/mL) PHD2 protein (Abcam, Cat. No. ab132273) at 4° C. for 8 hours, and its inhibitory effect on PHD2 enzyme activity is determined according to the 2-oxogalarate-phenylenediamine method.
100 μL of PHD2 enzyme solution incubated with the PHD2 inhibitor is taken and 100 μL of reaction substrate (300 μM of 2-oxogalarate, 150 μM of Fe^2+) is added, followed by 100 μL of 0.5 moles (M) of hydrogen chloride (HCl) and 10 mg/mL of o-phenylenediamine, and the reaction is carried out at 95° C. for 15 minutes after mixing, so as to obtain a reaction product. The reaction product is centrifuged to taken the supernatant, 10 μL of 1.25 M of sodium hydroxide (NaOH) is added to terminate the reaction, and the fluorescence value of the reaction is determined using 340 nanometers (nm) excitation at the emission wavelength of 420 nm, the results are shown in FIG. 3B.
Assay [8] has as its system Pseudomonas aeruginosa infected mice. Kind of assay: Blood coagulation function in mice infected with Pseudomonas aeruginosa. It is filed as in vivo, ICR (CD-1) mice. To be noted: plasma 24 hours after infection; polydatin 10, 20, 40 mg/kg i.p.; aspirin 30 mg/kg gavage; Daprodustat 15 mg/kg i.p.; vs model group. The protocol:
ICR (CD-1) male mice are taken and randomly divided into 7 groups (6 mice in each group), which are a blank control group, a model group, an aspirin positive control group (gavage at 30 mg/kg), a Daprodustat-positive control group (intraperitoneally injected at 15 mg/kg), and low, medium and high doses of polydatin group (intraperitoneally injected at 10 mg/kg, 20 mg/kg, 40 mg/kg). Mice are anesthetized by intraperitoneal injection of 1% pentobarbital sodium (40 mg/kg). Activated Pseudomonas aeruginosa (1×10^7/20 μL) is added dropwise into the nasal cavity of mice in the model group and each administration group, and an equal amount of physiological saline is dropped into the blank control group. The respective groups are administered at 0 and 8 hours after molding, respectively. 24 hours after infection, plasma is obtained by blood sampling from mouse eyeballs, and four indexes of coagulation (prothrombin time, activated partial […] and fibrinogen) are measured by a semi-automatic coagulation analyzer.

T1 sequence (Q9GZT9 whole entry): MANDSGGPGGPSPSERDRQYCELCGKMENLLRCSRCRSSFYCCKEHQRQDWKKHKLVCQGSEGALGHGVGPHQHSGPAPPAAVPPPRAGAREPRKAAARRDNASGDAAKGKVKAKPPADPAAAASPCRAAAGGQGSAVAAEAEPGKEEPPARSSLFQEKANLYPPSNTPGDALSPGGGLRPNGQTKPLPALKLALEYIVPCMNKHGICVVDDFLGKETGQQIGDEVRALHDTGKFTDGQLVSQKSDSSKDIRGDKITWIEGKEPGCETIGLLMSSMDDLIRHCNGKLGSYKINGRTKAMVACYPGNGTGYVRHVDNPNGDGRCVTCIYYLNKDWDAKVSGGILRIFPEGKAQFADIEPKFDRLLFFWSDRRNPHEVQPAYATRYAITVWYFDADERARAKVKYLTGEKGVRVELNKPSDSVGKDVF

`O=C(O)CNC(=O)c1c(O)c2ccccc2n(Cc2ccccc2)c1=O` [IOX2, N-[[1,2-dihydro-4-hydroxy-2-oxo-1-(phenylmethyl)-3-quinolinyl]carbonyl]-glycine]: the collagen-VWF-platelet adhesion result with SD rat platelets [1] was “blocking the binding of collagen-VWF-platelet adhesion”. The “binding of collagen-VWF” value with binding of collagen-VWF is reported as “affecting the binding of collagen-VWF”. Further, the PHD2-mediated collagen-platelet adhesion entry in the assay on SD rat platelets [2] is recorded as “significantly reduces the occurrence of PHD2-mediated platelet adhesion”. In addition, the “platelet adhesion to collagen (fluorescence imaging)” value in the assay with SD rat platelets [3] is on record as “inhibits platelet adhesion to collagen in a concentration-dependent manner”.

As to `CC(=O)N[C@@H](CS)C(=O)O` [N-acetylcysteine, reference compound], in assay [4], the erythrocyte aggregation index result is “significantly reduce”, the erythrocyte packed-cell volume entry is “significantly reduce”, the mean platelet volume entry is given as “improved” and the platelet number entry is reported as “significantly reduce”. Besides, in assay [4], the whole blood viscosity entry is on record as “improved to a certain extent”.

With `CC(=O)Oc1ccccc1C(=O)O` [aspirin], the “pulmonary thrombi, Masson staining of lung tissues” value in [5] is listed as “significantly inhibit the formation of thrombus”. Further, in [5] (vs LPS group), the tail bleeding time result is on record as “significantly increase” and the tail bleeding volume entry is on record as “significantly increase”.

One may read the Kd as the free concentration of one partner at which half of the binding sites on the other are occupied at equilibrium, for simple one-to-one binding. As to `CC(C)=CCC[C@](C)(O[C@@H]1O[C@H](CO)[C@@H](O)[C@H](O)[C@H]1O)[C@H]1CC[C@]2(C)[C@@H]1[C@H](O)C[C@@H]1[C@@]3(C)CC[C@H](O)C(C)(C)[C@@H]3CC[C@]12C` [ginsenoside CK], the Kd at PHD2 protein [6] was found to be 18 µM. For the same compound, in assay [4], the erythrocyte aggregation index entry is recorded as “significantly reduce”, the erythrocyte packed-cell volume entry is listed as “significantly reduce”, the mean platelet volume result was “improved” and the platelet number result is given as “significantly reduce”. For the same compound, the whole blood viscosity entry in assay [4] is “improved to a certain extent”. The “inhibition of PHD2 enzyme activity” value against PHD2 protein [7] (ginsenoside CK at 0.5 μM, 5 μM, 50 μM) is “inhibit the PHD2 enzyme activity in a concentration gradient”.

As for `OC[C@H]1O[C@@H](Oc2cc(O)cc(/C=C/c3ccc(O)cc3)c2)[C@H](O)[C@@H](O)[C@@H]1O` [polydatin], the Kd on PHD2 protein [6] turned out to be 23.5 µM. Moreover, in assay [8], the “activated partial thrombin time” value is reported as “significantly prolong”, the “fibrinogen content in blood” value is reported as “reduced”, the prothrombin time entry is recorded as “significantly prolong” and the thrombin time entry was “significantly prolong”. At PHD2 protein [7] (polydatin at 0.1 μM, 1 μM, 10 μM), the “inhibition of PHD2 enzyme activity” value is reported as “inhibit the PHD2 enzyme activity in a concentration gradient”.
